The record followed here is EP4509511A1, “SUBSTITUTED SPIRO-ISOXAZOLINYL LACTAMS, SALTS THEREOF AND THEIR USE AS HERBICIDALLY ACTIVE SUBSTANCES” (Bayer Aktiengesellschaft, priority 2023, dated 2025).

Assay [1] concerns ABUTH. Kind of assay: Herbicidal post-emergence action - Part II. In kind it is in vivo, Abutilon theophrasti. The source says:
(§1) Seeds of mono- and dicotyledonous weed plants and crop plants were sown, in plastic or organic planting pots, in sandy loam, covered with soil and grown in a greenhouse under controlled growth conditions. 2 to 3 weeks after sowing, the test plants were sprayed in the single-leaf stage. The compounds according to the invention, formulated in form of wettable powders (WP) or as emulsifiable concentrates (EC), were sprayed onto the green plant parts as aqueous suspension or emulsion, with the addition of 0.5% of an additive, at an application rate of 600 1 of water/ha (converted). The test plants were placed in the greenhouse for ca. 3 weeks under optimum growth conditions, and then the effect of the preparations was assessed visually in comparison with untreated controls (herbicidal effect in percent (%): 100% effect = plants have died off, 0% effect = as control plants). Tables E1 to E10 below show the effects of selected compounds of the general formula (I) according to table 1 on various harmful plants and an application rate corresponding to 320 g/ha or below obtained by the experimental procedure mentioned above. Table E1a: post-emergence activity at 5g/ha against ABUTH in %

The test system of assay [2] is AMARE. Kind of assay: Herbicidal post-emergence action - Part II. The assay is classed as in vivo, Amaranthus retroflexus.
Excerpt: as §1

Assay [3] has as its system MATIN. Kind of assay: Herbicidal post-emergence action - Part II. In kind it is in vivo, Matricaria inodora.
Excerpt: as §1

For assay [4], the system named is PHBPU. Kind of assay: Herbicidal post-emergence action - Part II. The assay is classed as in vivo, Pharbitis purpurea.
Excerpt: as §1

Assay [5] deals with POLCO. Put plainly: Herbicidal post-emergence action - Part II. To be noted: 20 g/ha; Table E6. The assay is classed as in vivo, Polygonum convolvulus.
Excerpt: as §1

Assay [6] deals with SETVI. Kind of assay: Herbicidal post-emergence action - Part II. The assay is classed as in vivo, Setaria viridis.
Excerpt: as §1

Assay [7] relates to VERPE. Put plainly: Herbicidal post-emergence action - Part II. In kind it is in vivo, Veronica persica.
Excerpt: as §1

The test system of assay [8] is VIOTR. Kind of assay: Herbicidal post-emergence action - Part II. In kind it is in vivo, Viola tricolor.
Excerpt: as §1

Assay [9] concerns ZEAMX. Put plainly: Post-emergence effects on crop plants. In kind it is in vivo, Zea mays. To be noted: crop plant.
Excerpt: as §1, with “F1” for “E1”, “F5” for “E10”, “crop” for “harmful”, “[…]:” for “E1a:”, “ZEAMX” for “ABUTH”

For assay [10], the system named is TRZAS. Kind of assay: Post-emergence effects on crop plants. In kind it is in vivo, Triticum aestivum. To be noted: crop plant.
Excerpt: as §1, with “F1” for “E1”, “F5” for “E10”, “crop” for “harmful”, “[…]:” for “E1a:”, “ZEAMX” for “ABUTH”

In assay [11] the test system is GLXMA. Put plainly: Post-emergence effects on crop plants. Particulars: crop plant. The assay is classed as in vivo, Glycine max.
Excerpt: as §1, with “F1” for “E1”, “F5” for “E10”, “crop” for “harmful”, “[…]:” for “E1a:”, “ZEAMX” for “ABUTH”

Molecules are shown by their SMILES.

For the compound `Cn1c(C(F)(F)F)cc(=O)n(-c2cc(C3=NOC4(CCN(Cc5c(F)cccc5F)C4=O)C3)c(Cl)cc2F)c1=O` (racemic) [Compound I-29], the “post-emergence activity against ABUTH” value in assay [1] (5 g/ha, Table E1a) is recorded as 100%; in [1] (20 g/ha, Table E1b), 100%. Also, the “post-emergence activity against AMARE” value in assay [2] (5 g/ha, Table E2a) came out at 100%; in [2] (20 g/ha, Table E2b) it was 100%. In assay [3] (20 g/ha, Table E4b), the “post-emergence activity against MATIN” value is reported as 100%. In addition, the “post-emergence activity against PHBPU” value in [4] (20 g/ha, Table E5b) came out at 100%. In addition, the “post-emergence activity against POLCO” value in assay [5] was found to be 100%. Further, the “post-emergence activity against SETVI” value in assay [6] (5 g/ha, Table E7a) is given as 80%; in [6] (20 g/ha, Table E7b) it was 80%. The “post-emergence activity against VERPE” value in [7] (5 g/ha, Table E8a) was 100%; in assay [7] (20 g/ha, Table E8b), 100%. Moreover, the “post-emergence activity against VIOTR” value in [8] (5 g/ha, Table E9a) was found to be 100%; in assay [8] (20 g/ha, Table E9b), 100%. Besides, the “post-emergence activity against ZEAMX” value in assay [9] (5 g/ha, Table F1a) was found to be 20%. In addition, the “post-emergence activity against TRZAS” value was 20% in [10] (5 g/ha, Table F2a) and 20% in assay [10] (20 g/ha, Table F2b). Moreover, the “post-emergence activity against GLXMA” value in assay [11] (5 g/ha, Table F4a) is recorded as 10%; in [11] (20 g/ha, Table F4b), 20%.
As to `COC(=O)CN1CCCC2(CC(c3cc(-n4c(=O)cc(C(F)(F)F)n(C)c4=O)c(F)cc3Cl)=NO2)C1=O` (racemic) [Compound I-57], in assay [1] (20 g/ha, Table E1b), the “post-emergence activity against ABUTH” value amounted to 100%. Also, the “post-emergence activity against AMARE” value in assay [2] (5 g/ha, Table E2a) is recorded as 100%; in [2] (20 g/ha, Table E2b), 100%. The “post-emergence activity against MATIN” value in assay [3] (20 g/ha, Table E4b) came out at 100%. Further, the “post-emergence activity against PHBPU” value turned out to be 100% in assay [4] (5 g/ha, Table E5a) and 100% in assay [4] (20 g/ha, Table E5b). For the same compound, in [5], the “post-emergence activity against POLCO” value was found to be 100%. Also, the “post-emergence activity against VERPE” value in [7] (20 g/ha, Table E8b) is recorded as 100%. The “post-emergence activity against VIOTR” value in assay [8] (20 g/ha, Table E9b) amounted to 100%. The “post-emergence activity against ZEAMX” value came to 20% in [9] (5 g/ha, Table F1a) and 20% in assay [9] (20 g/ha, Table F1b). Besides, the “post-emergence activity against TRZAS” value in [10] (5 g/ha, Table F2a) amounted to 20%; in assay [10] (20 g/ha, Table F2b), 20%.
In the case of `CN1CCCC2(CC(c3cc(-n4c(=O)cc(C(F)(F)F)n(C)c4=O)c(F)cc3Cl)=NO2)C1=O` (racemic) [Compound I-56], the “post-emergence activity against ABUTH” value is 100% in assay [1] (5 g/ha, Table E1a) and 100% in [1] (20 g/ha, Table E1b). Also, the “post-emergence activity against AMARE” value was determined as 100% in assay [2] (5 g/ha, Table E2a) and 100% in assay [2] (20 g/ha, Table E2b). In addition, in [3] (20 g/ha, Table E4b), the “post-emergence activity against MATIN” value came out at 100%. The “post-emergence activity against PHBPU” value in [4] (5 g/ha, Table E5a) came out at 90%; in assay [4] (20 g/ha, Table E5b), 100%. Also, the “post-emergence activity against POLCO” value in assay [5] is listed as 100%. For the same compound, in assay [6] (20 g/ha, Table E7b), the “post-emergence activity against SETVI” value was determined as 90%. For the same compound, the “post-emergence activity against VERPE” value in [7] (5 g/ha, Table E8a) stood at 80%; in [7] (20 g/ha, Table E8b) it was 100%. The “post-emergence activity against VIOTR” value was 100% in assay [8] (5 g/ha, Table E9a) and 100% in [8] (20 g/ha, Table E9b). In addition, the “post-emergence activity against TRZAS” value is reported as 20% in assay [10] (5 g/ha, Table F2a) and 20% in [10] (20 g/ha, Table F2b).
Regarding `Cn1c(C(F)(F)F)cc(=O)n(-c2cc(C3=NOC4(CCCN(Cc5ccccc5F)C4=O)C3)c(Cl)cc2F)c1=O` (racemic) [Compound I-7], the “post-emergence activity against ABUTH” value was 100% in [1] (5 g/ha, Table E1a) and 100% in assay [1] (20 g/ha, Table E1b). Moreover, the “post-emergence activity against AMARE” value in assay [2] (5 g/ha, Table E2a) came to 100%; in assay [2] (20 g/ha, Table E2b), 100%. Besides, the “post-emergence activity against MATIN” value in [3] (5 g/ha, Table E4a) was determined as 80%; in [3] (20 g/ha, Table E4b) it was 80%. The “post-emergence activity against PHBPU” value in assay [4] (5 g/ha, Table E5a) is recorded as 100%; in assay [4] (20 g/ha, Table E5b), 100%. Further, in assay [5], the “post-emergence activity against POLCO” value was determined as 100%. Further, in assay [6] (20 g/ha, Table E7b), the “post-emergence activity against SETVI” value was determined as 100%. Also, the “post-emergence activity against VERPE” value in assay [7] (5 g/ha, Table E8a) was 100%; in assay [7] (20 g/ha, Table E8b), 100%. The “post-emergence activity against VIOTR” value in [8] (5 g/ha, Table E9a) is 100%; in [8] (20 g/ha, Table E9b) it was 100%. Moreover, the “post-emergence activity against ZEAMX” value in [9] (5 g/ha, Table F1a) worked out at 20%. The “post-emergence activity against TRZAS” value in [10] (5 g/ha, Table F2a) is 10%; in assay [10] (20 g/ha, Table F2b) it was 20%.
`Cn1c(C(F)(F)F)cc(=O)n(-c2cc(C3=NOC4(CCNC4=O)C3)c(Cl)cc2F)c1=O` (racemic) [Compound I-71]: the “post-emergence activity against ABUTH” value in assay [1] (5 g/ha, Table E1a) was 80%; in assay [1] (20 g/ha, Table E1b), 100%. Moreover, the “post-emergence activity against AMARE” value in assay [2] (20 g/ha, Table E2b) was determined as 100%. The “post-emergence activity against MATIN” value in [3] (20 g/ha, Table E4b) is on record as 80%. Also, the “post-emergence activity against PHBPU” value in assay [4] (20 g/ha, Table E5b) is 80%. For the same compound, the “post-emergence activity against POLCO” value in [5] was found to be 80%. Also, the “post-emergence activity against VERPE” value in assay [7] (20 g/ha, Table E8b) is on record as 80%. In addition, the “post-emergence activity against VIOTR” value turned out to be 80% in [8] (5 g/ha, Table E9a) and 80% in assay [8] (20 g/ha, Table E9b). For the same compound, the “post-emergence activity against ZEAMX” value in assay [9] (5 g/ha, Table F1a) stood at 20%. Further, the “post-emergence activity against TRZAS” value in assay [10] (5 g/ha, Table F2a) is recorded as 0%.
